Key:
Format in all cases: cell-based
Tyk2 = biological target: T1, Tyk2 (Homo sapiens, UniProt P29597); experiment: Degradation-inducing effect on JAK in Jurkat cells (chemiluminescent Western blotting), Tyk2; settings: 1 μmol/L, 6 hours; for JAK protein ratio of Jurkat cells after treatment of each test compound: Tyk2: corrected by GAPDH, DMSO as 100%
T1 construct: endogenous in cells; host or cells: Jurkat cells
Protocol: (§1) The degradation-inducing effect of the compound of the present invention on JAK family proteins was evaluated in vitro using Jurkat cells, of which cell line was derived from human leukemic T cells.
(§2) JAK1, JAK2, JAK3, and Tyk2-positive Jurkat cells were seeded at a density of 1×10^5 cells/mL on 10 cm diameter dishes and then cultured in RPMI 1640 medium (FUJIFILM Wako Pure Chemical: catalog number: 189-02025) containing 10% FBS (Thermo Fisher Scientific: catalog number: 10437-028) at 5% CO2 and 37° C. for 3 days. Then, each of the test compounds (compounds of Examples 1 to 11 and Comparative Examples 1 and 2) was added to the dish at a final concentration of 1 μmol/L, and the cells were cultured in the presence of the test compound for 6 hours. After that, the cell culture medium was collected in a 15 mL centrifuge tube (1000 rpm (240× g), room temperature, 5 min), followed by washing with PBS (1000 rpm (240× g), room temperature, 5 min). Then, the cells in the centrifuge tube were collected in a 1.5 mL tube (3000 rpm (860× g), 4° C., 5 min), lysed using RIPA buffer (25 mmol/L Tris-HCl (pH 7.4), 25 mmol/L NaCl, 0.5 mmol/L EGTA (pH 8.0), 0.1% SDS, 1% protease inhibitor), sonicated at ice temperature (cycles of [7.5 sec sonication, 5 sec off] for 5 min) and subjected to centrifugation (15000 rpm (21600× g), 4° C., 30 min). The thus-obtained supernatant was used as the protein solution. Using the BCA protein assay kit (Thermo Fisher Scientific: catalog number: 23225), the protein concentration of the protein solution of each test compound was measured according to the kit instructions, and then adjusted to 1.4 mg/mL with RIPA buffer. The thus-adjusted protein solutions were subjected to a fully automated Western blotting device (Simple Westerns Wes: proteinSimple) to detect the protein levels (JAK1, JAK2, JAK3, and Tyk2 as the target proteins, and GAPDH (Glyceraldehyde 3-phosphate dehydrogenase) as the internal standard protein) in the protein solutions by chemiluminescent Western blotting.
(§3) Furthermore, the luminescence levels of JAK1, JAK2, JAK3, and Tyk2 detected by chemiluminescent Western blotting were quantified numerically by using an analysis software (Compass software for Simple Western (version 4.0.0)) attached to the fully automated Western blotting device. The numerical values of the quantified luminescence levels were corrected by the protein levels of the internal standard protein, i.e., GAPDH, (target protein levels/GAPDH protein levels), and compared among the test compounds with dimethyl sulfoxide (DMSO) as 100%.

JAK3 = biological target: T2, JAK3 (Homo sapiens, UniProt P52333); experiment: Degradation-inducing effect on JAK in Jurkat cells (chemiluminescent Western blotting), JAK3; settings: 1 μmol/L, 6 hours, corrected by GAPDH, DMSO as 100%, read-out: JAK protein ratio of Jurkat cells after treatment of each test compound: JAK3
T2 construct: endogenous in cells; host or cells: Jurkat cells
T2 sequence (P52333 1-1124): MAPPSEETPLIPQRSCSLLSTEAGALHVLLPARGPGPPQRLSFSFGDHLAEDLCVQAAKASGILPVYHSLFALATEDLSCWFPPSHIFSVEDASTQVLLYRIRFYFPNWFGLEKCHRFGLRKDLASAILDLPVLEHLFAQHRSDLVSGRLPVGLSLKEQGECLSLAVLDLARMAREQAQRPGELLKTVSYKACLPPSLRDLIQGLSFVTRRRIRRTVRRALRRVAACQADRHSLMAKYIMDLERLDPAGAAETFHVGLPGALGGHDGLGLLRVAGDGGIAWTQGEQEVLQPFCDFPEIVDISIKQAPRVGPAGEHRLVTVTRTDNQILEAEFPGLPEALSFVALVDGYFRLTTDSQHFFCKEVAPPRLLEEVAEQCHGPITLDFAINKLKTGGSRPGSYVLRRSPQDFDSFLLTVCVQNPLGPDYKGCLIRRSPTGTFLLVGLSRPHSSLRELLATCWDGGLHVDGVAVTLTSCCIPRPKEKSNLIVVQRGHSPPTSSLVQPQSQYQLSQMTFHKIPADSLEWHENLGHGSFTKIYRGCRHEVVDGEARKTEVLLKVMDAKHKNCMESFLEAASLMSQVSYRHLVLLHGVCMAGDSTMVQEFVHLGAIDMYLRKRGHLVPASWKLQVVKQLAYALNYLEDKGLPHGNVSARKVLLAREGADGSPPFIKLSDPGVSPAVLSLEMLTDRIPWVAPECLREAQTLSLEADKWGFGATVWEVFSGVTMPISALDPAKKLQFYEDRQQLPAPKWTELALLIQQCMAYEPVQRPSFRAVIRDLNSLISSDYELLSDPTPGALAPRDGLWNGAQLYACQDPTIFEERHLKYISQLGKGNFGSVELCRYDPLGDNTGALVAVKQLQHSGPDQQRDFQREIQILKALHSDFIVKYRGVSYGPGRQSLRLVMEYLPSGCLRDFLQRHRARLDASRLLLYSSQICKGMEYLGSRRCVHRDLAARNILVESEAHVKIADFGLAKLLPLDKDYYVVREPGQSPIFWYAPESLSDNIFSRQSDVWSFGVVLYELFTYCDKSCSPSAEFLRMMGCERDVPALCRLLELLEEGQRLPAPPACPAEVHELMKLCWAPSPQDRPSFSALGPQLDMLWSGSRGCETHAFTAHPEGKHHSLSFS
Protocol: as §1, §2, §3

JAK1 = biological target: T3, JAK1 (Homo sapiens, UniProt P23458); experiment: Degradation-inducing effect on JAK in Jurkat cells (chemiluminescent Western blotting), JAK1; settings: 1 μmol/L, 6 hours; for JAK protein ratio of Jurkat cells after treatment of each test compound: JAK1: corrected by GAPDH, DMSO as 100%
T3 construct: endogenous in cells; host or cells: Jurkat cells
Protocol: as §1, §2, §3

JAK2 = biological target: T4, JAK2 (Homo sapiens, UniProt O60674); experiment: Degradation-inducing effect on JAK in Jurkat cells (chemiluminescent Western blotting), JAK2; settings: 1 μmol/L, 6 hours, corrected by GAPDH, DMSO as 100%
T4 construct: endogenous in cells; host or cells: Jurkat cells
Protocol: as §1, §2, §3

T4 sequence (O60674 whole entry): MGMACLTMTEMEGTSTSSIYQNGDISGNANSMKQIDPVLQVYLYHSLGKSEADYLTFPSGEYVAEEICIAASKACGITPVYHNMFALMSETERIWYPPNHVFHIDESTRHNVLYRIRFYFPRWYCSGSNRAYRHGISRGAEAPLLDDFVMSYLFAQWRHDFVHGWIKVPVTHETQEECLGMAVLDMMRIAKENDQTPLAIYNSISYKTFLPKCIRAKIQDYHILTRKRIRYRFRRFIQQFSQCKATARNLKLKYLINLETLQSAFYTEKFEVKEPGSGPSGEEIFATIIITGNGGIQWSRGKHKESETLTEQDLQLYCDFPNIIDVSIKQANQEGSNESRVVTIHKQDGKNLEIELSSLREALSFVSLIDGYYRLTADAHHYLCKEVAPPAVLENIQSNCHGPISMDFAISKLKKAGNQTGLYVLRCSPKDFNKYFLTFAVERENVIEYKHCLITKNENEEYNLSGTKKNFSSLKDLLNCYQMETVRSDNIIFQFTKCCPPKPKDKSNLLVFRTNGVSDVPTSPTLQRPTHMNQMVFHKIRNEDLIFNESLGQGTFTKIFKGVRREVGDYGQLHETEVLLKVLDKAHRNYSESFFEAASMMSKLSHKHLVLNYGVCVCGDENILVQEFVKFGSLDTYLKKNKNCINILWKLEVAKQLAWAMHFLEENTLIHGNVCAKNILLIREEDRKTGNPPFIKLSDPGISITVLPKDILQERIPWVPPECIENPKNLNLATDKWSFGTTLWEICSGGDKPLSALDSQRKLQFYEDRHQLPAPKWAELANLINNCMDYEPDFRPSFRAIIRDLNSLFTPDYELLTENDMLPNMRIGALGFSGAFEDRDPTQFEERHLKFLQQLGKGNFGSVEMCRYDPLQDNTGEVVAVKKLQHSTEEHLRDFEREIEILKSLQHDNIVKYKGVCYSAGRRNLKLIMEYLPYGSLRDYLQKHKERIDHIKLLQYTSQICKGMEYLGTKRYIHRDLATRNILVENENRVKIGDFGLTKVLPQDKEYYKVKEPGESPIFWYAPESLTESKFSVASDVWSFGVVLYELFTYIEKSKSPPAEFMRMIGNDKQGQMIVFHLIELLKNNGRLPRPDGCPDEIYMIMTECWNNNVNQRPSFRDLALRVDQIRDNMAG
T3 sequence (P23458 whole entry): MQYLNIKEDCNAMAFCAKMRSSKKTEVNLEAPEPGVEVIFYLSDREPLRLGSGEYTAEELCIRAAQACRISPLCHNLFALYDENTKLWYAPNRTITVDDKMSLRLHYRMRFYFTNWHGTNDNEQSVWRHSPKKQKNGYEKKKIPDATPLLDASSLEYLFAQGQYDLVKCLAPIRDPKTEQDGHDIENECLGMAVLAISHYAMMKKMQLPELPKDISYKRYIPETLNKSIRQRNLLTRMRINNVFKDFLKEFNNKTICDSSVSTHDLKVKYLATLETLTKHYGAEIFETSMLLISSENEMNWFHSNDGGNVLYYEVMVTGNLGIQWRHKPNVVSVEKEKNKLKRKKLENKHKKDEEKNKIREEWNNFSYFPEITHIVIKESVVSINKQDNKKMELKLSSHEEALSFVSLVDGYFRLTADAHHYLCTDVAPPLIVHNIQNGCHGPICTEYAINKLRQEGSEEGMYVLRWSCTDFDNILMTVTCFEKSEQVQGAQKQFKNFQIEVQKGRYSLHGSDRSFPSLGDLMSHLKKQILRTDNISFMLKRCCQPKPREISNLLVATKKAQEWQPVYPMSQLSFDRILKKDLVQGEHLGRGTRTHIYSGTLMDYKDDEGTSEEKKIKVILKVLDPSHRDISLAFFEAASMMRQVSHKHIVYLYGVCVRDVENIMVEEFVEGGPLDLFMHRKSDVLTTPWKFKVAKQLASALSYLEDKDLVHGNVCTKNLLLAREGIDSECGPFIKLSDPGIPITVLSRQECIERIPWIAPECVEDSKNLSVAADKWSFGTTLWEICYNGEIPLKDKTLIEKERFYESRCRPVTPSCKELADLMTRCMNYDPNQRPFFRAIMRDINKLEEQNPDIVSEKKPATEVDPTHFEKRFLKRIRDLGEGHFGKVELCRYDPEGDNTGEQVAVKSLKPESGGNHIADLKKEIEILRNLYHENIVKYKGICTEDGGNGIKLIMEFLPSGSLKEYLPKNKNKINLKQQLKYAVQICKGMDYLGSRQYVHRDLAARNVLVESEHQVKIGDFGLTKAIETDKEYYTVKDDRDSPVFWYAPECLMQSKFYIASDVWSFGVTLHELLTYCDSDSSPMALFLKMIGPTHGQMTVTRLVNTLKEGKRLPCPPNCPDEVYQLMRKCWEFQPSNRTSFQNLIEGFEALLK
T1 sequence (P29597 whole entry): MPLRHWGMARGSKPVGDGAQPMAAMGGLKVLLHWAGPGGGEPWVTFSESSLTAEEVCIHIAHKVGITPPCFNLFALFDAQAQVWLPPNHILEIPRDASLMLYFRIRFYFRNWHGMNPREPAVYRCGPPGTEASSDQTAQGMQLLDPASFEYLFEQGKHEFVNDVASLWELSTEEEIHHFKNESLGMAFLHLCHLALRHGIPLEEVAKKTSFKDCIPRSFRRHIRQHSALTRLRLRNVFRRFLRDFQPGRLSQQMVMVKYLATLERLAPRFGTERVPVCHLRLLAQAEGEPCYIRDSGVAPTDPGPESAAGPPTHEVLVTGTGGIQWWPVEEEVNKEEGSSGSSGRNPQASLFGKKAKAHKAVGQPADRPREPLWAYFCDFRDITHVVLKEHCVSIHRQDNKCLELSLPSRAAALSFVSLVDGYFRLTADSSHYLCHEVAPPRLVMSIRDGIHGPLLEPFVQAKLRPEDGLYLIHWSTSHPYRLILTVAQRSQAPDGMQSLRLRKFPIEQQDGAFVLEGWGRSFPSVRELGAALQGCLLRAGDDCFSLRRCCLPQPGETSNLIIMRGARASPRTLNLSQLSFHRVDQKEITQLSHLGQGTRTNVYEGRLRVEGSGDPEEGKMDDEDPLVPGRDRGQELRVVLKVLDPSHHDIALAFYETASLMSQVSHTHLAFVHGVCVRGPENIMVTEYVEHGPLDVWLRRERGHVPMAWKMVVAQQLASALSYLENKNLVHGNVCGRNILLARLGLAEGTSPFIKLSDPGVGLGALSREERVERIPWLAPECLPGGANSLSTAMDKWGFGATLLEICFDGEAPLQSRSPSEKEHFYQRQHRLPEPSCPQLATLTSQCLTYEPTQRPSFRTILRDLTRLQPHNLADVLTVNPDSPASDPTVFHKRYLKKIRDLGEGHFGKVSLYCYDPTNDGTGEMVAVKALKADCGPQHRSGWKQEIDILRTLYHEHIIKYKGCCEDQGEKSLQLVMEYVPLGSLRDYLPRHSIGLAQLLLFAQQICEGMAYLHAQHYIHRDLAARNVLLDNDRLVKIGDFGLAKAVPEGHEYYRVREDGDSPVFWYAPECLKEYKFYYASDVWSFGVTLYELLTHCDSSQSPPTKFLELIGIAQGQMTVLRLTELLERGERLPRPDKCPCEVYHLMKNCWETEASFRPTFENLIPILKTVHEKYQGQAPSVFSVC

SMILES | JAK protein ratio of Jurkat cells after treatment of each test compound: Tyk2 (Tyk2) [%] | JAK3 protein level relative to DMSO at 1 µM (JAK3) [%] | JAK protein ratio of Jurkat cells after treatment of each test compound: JAK1 (JAK1) [%] | JAK protein ratio of Jurkat cells after treatment of each test compound: JAK2 (JAK2) [%] | protein level of JAK1 (in words) (JAK1) | protein level of Tyk2 (in words) (Tyk2)
CNC(=O)c1cnc(Nc2ccc(C(=O)NCCCCCCCCCC(=O)N[C@H](C(=O)N3C[C@H](O)C[C@H]3C(=O)NCc3ccc(-c4scnc4C)cc3)C(C)(C)C)cn2)cc1Nc1cccc(C(=O)NCCO)c1OC [Example 11, 6-((5-((10-(((S)-1-((2S,4R)-4-hydroxy-2-((4-(4-methylthiazol-5-yl)benzyl)carbamoyl)pyrrolidin-1-yl)-3,3-dimethyl-1-oxobutan-2-yl)amino)-10-oxodecyl)carbamoyl)pyridin-2-yl)amino)-4-((3-((2-hydroxyethyl)carbamoyl)-2-methoxyphenyl)amino)-N-methylnicotinamide] | 55.1 | 103 | 114.4 | 132.2 | – | –
CNC(=O)c1cnc(Nc2ccc(C(=O)NCCCCCCCC(=O)N[C@H](C(=O)N3C[C@H](O)C[C@H]3C(=O)NCc3ccc(-c4scnc4C)cc3)C(C)(C)C)cn2)cc1Nc1cccc(C(=O)NC)c1OC [Example 3, 6-((5-((8-(((S)-1-((2S,4R)-4-Hydroxy-2-((4-(4-methylthiazol-5-yl)benzyl)carbamoyl)pyrrolidin-1-yl)-3,3-dimethyl-1-oxobutan-2-yl)amino)-8-oxooctyl)carbamoyl)pyridin-2-yl)amino)-4-((2-methoxy-3-(methylcarbamoyl)phenyl)amino)-N-methylnicotinamide] | 51.6 | 97.5 | 118.2 | 117.6 | – | –
CNC(=O)c1cnc(Nc2ccc(C(=O)NCCCC(=O)N[C@H](C(=O)N3C[C@H](O)C[C@H]3C(=O)NCc3ccc(-c4scnc4C)cc3)C(C)(C)C)cn2)cc1Nc1cccc(C(=O)NC)c1OC [Example 1] | 82.8 | 114 | 111.9 | 121.3 | – | –
CNC(=O)c1cccc(Nc2cc(Nc3ccc(C(=O)NCCCCCCCCCC(=O)N[C@H](C(=O)N4C[C@H](O)C[C@H]4C(=O)NCc4ccc(-c5scnc5C)cc4)C(C)(C)C)cn3)ncc2C(N)=O)c1OC [Example 9, 6-((5-Carbamoyl-4-((2-methoxy-3-(methylcarbamoyl)phenyl)amino)pyridin-2-yl)amino)-N-(10-(((S)-1-((2S,4R)-4-hydroxy-2-((4-(4-methylthiazol-5-yl)benzyl)carbamoyl)pyrrolidin-1-yl)-3,3-dimethyl-1-oxobutan-2-yl)amino)-10-oxodecyl) nicotinamide] | 15.4 | 99.3 | 57.6 | 115.9 | reduced | –
CNC(=O)c1cnc(Nc2ccc(C(=O)NCCCCCCCCCCC(=O)N[C@H](C(=O)N3C[C@H](O)C[C@H]3C(=O)NCc3ccc(-c4scnc4C)cc3)C(C)(C)C)cn2)cc1Nc1cccc(C(=O)NC)c1OC [Example 6, 6-((5-((11-(((S)-1-((2S,4R)-4-Hydroxy-2-((4-(4-methylthiazol-5-yl)benzyl)carbamoyl)pyrrolidin-1-yl)-3,3-dimethyl-1-oxobutan-2-yl)amino)-11-oxoundecyl)carbamoyl)pyridin-2-yl)amino)-4-((2-methoxy-3-(methylcarbamoyl)phenyl)amino)-N-methylnicotinamide] | 30.3 | 122 | 113.2 | 139.8 | – | –
CNC(=O)c1cnc(Nc2ccc(C(=O)NCCCCCCCCCCCC(=O)N[C@H](C(=O)N3C[C@H](O)C[C@H]3C(=O)NCc3ccc(-c4scnc4C)cc3)C(C)(C)C)cn2)cc1Nc1cccc(C(=O)NC)c1OC [Example 7, 6-((5-((12-(((S)-1-((2S,4R)-4-Hydroxy-2-((4-(4-methylthiazol-5-yl)benzyl)carbamoyl)pyrrolidin-1-yl)-3,3-dimethyl-1-oxobutan-2-yl)amino)-12-oxododecyl)carbamoyl)pyridin-2-yl)amino)-4-((2-methoxy-3-(methylcarbamoyl)phenyl)amino)-N-methylnicotinamide] | 47.1 | 112 | 112.1 | 108.2 | – | –
CNC(=O)c1cnc(Nc2ccc(C(=O)NCCCCCC(=O)N[C@H](C(=O)N3C[C@H](O)C[C@H]3C(=O)NCc3ccc(-c4scnc4C)cc3)C(C)(C)C)cn2)cc1Nc1cccc(C(=O)NC)c1OC [Example 2, 6-((5-((6-(((S)-1-((2S,4R)-4-Hydroxy-2-((4-(4-methylthiazol-5-yl)benzyl)carbamoyl)pyrrolidin-1-yl)-3,3-dimethyl-1-oxobutan-2-yl)amino)-6-oxohexyl)carbamoyl)pyridin-2-yl)amino)-4-((2-methoxy-3-(methylcarbamoyl)phenyl)amino)-N-methylnicotinamide] | 48.8 | 118 | 139.2 | 112.6 | – | –
CNC(=O)c1cnc(Nc2ccc(F)cn2)cc1Nc1cccc(C(=O)OCCCCCCCCCC(=O)N[C@H](C(=O)N2C[C@H](O)C[C@H]2C(=O)NCc2ccc(-c3scnc3C)cc2)C(C)(C)C)c1OC [Comparative Example 2, 10-(((S)-1-((2S,4R)-4-Hydroxy 2-((4-(4-methylthiazol-5-yl)benzyl)carbamoyl)pyrrolidin-1-yl)-3,3-dimethyl-1-oxobutan-2-yl)amino)-10-oxodecyl 3-((2-((5-fluoropyridin-2-yl)amino)-5-(methylcarbamoyl)pyridin-4-yl)amino)-2-methoxybenzoate, reference compound] | 100.1 | 89.8 | 108.7 | 101.7 | – | not reduced

Source: US20240425456A1, “DEGRADER” (ASKA PHARMACEUTICAL CO., LTD., priority 2021, published 2024)
